Source: patent publication US20260355196A1, “INHIBITORS AND DEGRADERS OF PIP4K PROTEIN” (Larkspur Biosciences, Inc., priority 2023, published 2026)

Biological target: T1, PIP4K2C (Homo sapiens, UniProt Q8TBX8)
T1 sequence (Q8TBX8 1-421): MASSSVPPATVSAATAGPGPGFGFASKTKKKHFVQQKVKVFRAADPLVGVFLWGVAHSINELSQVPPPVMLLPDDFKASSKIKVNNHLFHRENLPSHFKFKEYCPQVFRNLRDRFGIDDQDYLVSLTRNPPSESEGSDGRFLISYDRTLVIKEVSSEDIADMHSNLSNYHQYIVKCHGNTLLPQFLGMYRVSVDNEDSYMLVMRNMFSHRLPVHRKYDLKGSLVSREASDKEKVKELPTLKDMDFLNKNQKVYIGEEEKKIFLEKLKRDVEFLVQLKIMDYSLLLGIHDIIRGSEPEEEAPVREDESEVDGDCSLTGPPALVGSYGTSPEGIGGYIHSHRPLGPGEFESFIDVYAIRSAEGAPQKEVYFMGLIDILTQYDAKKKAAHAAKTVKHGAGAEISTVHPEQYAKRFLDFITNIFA
Test: Enzyme Binding Assay (KINOMEscan): active site-directed competition binding to an immobilized ligand
Set-up: purchased Eurofins DiscoverX, San Diego, CA 87-0007-1094
Conditions: 11-point dose response, duplicate, top concentration 5 micromolar; read-out: Pip4k2c Kd: IC50
In short: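 IC50 values come from Hill-equation fits (Levenberg-Marquardt) to 11-point duplicate titrations starting at 5 micromolar. Read-out is competition of compound with an immobilized ligand for the kinase active site.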

| SMILES | IC50 [nM] |
| --- | --- |
| CNC(=O)[C@H]1CC[C@H](Nc2ncc(Cl)c(-c3ccc(=O)n(-c4ccc(F)cc4)c3)n2)CC1 [Compound 95, trans-(1r,4r)-4-((5-chloro-4-(1-(4-fluorophenyl)-6-oxo-1,6-dihydropyridin-3-yl)pyrimidin-2-yl)amino)-N-methylcyclohexane-1-carboxamide] | 1000 to 5000 |
| CC(=O)N[C@H]1CC[C@H](Nc2ncc(Cl)c(-c3ccc(=O)n(C4CC4)c3)n2)CC1 [Compound 96, trans-N-((1r,4r)-4-((5-chloro-4-(1-cyclopropyl-6-oxo-1,6-dihydropyridin-3-yl)pyrimidin-2-yl)amino)cyclohexyl)acetamide] | 500 to 1000 |
| CNC(=O)[C@H]1C[C@@H](Nc2ncc(Cl)c(-c3cnn(C4CC4)c3)n2)C1 [Compound 97, cis-3-((5-chloro-4-(1-cyclopropyl-1H-pyrazol-4-yl)pyrimidin-2-yl)amino)-N-methylcyclobutane-1-carboxamide] | < 500 |
| CC(=O)N1CCC(Nc2ncc(Cl)c(-c3cnn(C4CC4)c3)n2)CC1 [Compound 98, 1-(4-((5-chloro-4-(1-cyclopropyl-1H-pyrazol-4-yl)pyrimidin-2-yl)amino)piperidin-1-yl)ethan-1-one] | < 500 |
| CC(=O)N[C@H]1CC[C@@H](Nc2ncc(Cl)c(-c3cnn(C4CC4)c3)n2)CC1 [Compound 99, cis-N-((1s,4s)-4-((5-chloro-4-(1-cyclopropyl-1H-pyrazol-4-yl)pyrimidin-2-yl)amino)cyclohexyl)acetamide] | 500 to 1000 |
| CC(=O)N[C@H]1CC[C@H](Nc2ncc(Cl)c(C3CCCN(C(=O)C4CC4)C3)n2)CC1 (stereo partly drawn) [Compound 100, trans-N-(4-((5-chloro-4-(1-(cyclopropanecarbonyl)piperidin-3-yl)pyrimidin-2-yl)amino)cyclohexyl)acetamide] | < 500 |
| CNC(=O)[C@H]1CC[C@H](Nc2ncc(Cl)c(-c3cccc(-c4ccc(F)cc4)c3)n2)CC1 [Compound 101, trans-(1r,4r)-4-((5-chloro-4-(4′-fluoro-[1,1′-biphenyl]-3-yl)pyrimidin-2-yl)amino)-N-methylcyclohexane-1-carboxamide] | < 500 |
| CC(=O)N[C@H]1CC[C@H](Nc2ncc(Cl)c(-c3cccc(-n4ccccc4=O)c3)n2)CC1 [Compound 102, trans-N-((1r,4r)-4-((5-chloro-4-(3-(2-oxopyridin-1 (2H)-yl)phenyl)pyrimidin-2-yl)amino)cyclohexyl)acetamide] | < 500 |
| CNC(=O)[C@H]1CC[C@H](Nc2ncc(Cl)c(-c3cccc(-n4ccccc4=O)c3)n2)CC1 [Compound 103, trans-(1r,4r)-4-((5-chloro-4-(3-(2-oxopyridin-1 (2H)-yl)phenyl)pyrimidin-2-yl)amino)-N-methylcyclohexane-1-carboxamide] | < 500 |
| CNC(=O)[C@H]1CC[C@@H](Nc2ncc(Cl)c(-c3cccc(-n4ccccc4=O)c3)n2)CC1 [Compound 104, cis-(1s,4s)-4-((5-chloro-4-(3-(2-oxopyridin-1 (2H)-yl)phenyl)pyrimidin-2-yl)amino)-N-methylcyclohexane-1-carboxamide] | < 500 |
| CC(=O)N1CCC(Nc2ncc(Cl)c(-c3ccnc(-c4ccc(F)cc4)c3)n2)CC1 [Compound 105, 1-(4-((5-chloro-4-(2-(4-fluorophenyl)pyridin-4-yl)pyrimidin-2-yl)amino)piperidin-1-yl)ethan-1-one] | < 500 |
| CNC(=O)[C@H]1CC[C@H](Nc2ncc(Cl)c(-c3ccc(=O)n(C4CC4)c3)n2)CC1 [Compound 106, trans-(1r,4r)-4-((5-chloro-4-(1-cyclopropyl-6-oxo-1,6-dihydropyridin-3-yl)pyrimidin-2-yl)amino)-N-methylcyclohexane-1-carboxamide] | 500 to 1000 |
| CNC(=O)[C@H]1CC[C@@H](Nc2ncc(Cl)c(-c3cnn(C4CC4)c3)n2)CC1 [Compound 107, cis-(1s,4s)-4-((5-chloro-4-(1-cyclopropyl-1H-pyrazol-4-yl)pyrimidin-2-yl)amino)-N-methylcyclohexane-1-carboxamide] | 500 to 1000 |
| CNC(=O)[C@H]1CC[C@@H](Nc2ncc(Cl)c(-c3cnn(C4CCCCC4)c3)n2)CC1 [Compound 108, cis-(1s,4s)-4-((5-chloro-4-(1-cyclohexyl-1H-pyrazol-4-yl)pyrimidin-2-yl)amino)-N-methylcyclohexane-1-carboxamide] | 1000 to 5000 |
| CC(=O)N1CCC(Nc2ncc(Cl)c(-c3ccn(C4CCCCC4)n3)n2)CC1 [Compound 109, 1-(4-((5-chloro-4-(1-cyclohexyl-1H-pyrazol-3-yl)pyrimidin-2-yl)amino)piperidin-1-yl)ethan-1-one] | 1000 to 5000 |
| CC(=O)N1CCC(Nc2ncc(Cl)c(-c3cnn(-c4ccc(=O)[nH]c4)c3)n2)CC1 [Compound 110, 5-(4-(2-((1-acetylpiperidin-4-yl)amino)-5-chloropyrimidin-4-yl)-1H-pyrazol-1-yl)pyridin-2(1H)-one] | < 500 |

| SMILES | IC50 [nM] |
| --- | --- |
| CC(=O)N1CCC(Nc2ncc(Cl)c(-c3cnn(-c4ccc[nH]c4=O)c3)n2)CC1 [Compound 111, 3-(4-(2-((1-acetylpiperidin-4-yl)amino)-5-chloropyrimidin-4-yl)-1H-pyrazol-1-yl)pyridin-2(1H)-one] | < 500 |
| CC(=O)N1CCC(Nc2ncc(Cl)c(-c3cccc(-c4ccc(F)cc4)n3)n2)CC1 [Compound 114, 1-(4-((5-chloro-4-(6-(4-fluorophenyl)pyridin-2-yl)pyrimidin-2-yl)amino)piperidin-1-yl)ethan-1-one] | < 500 |
| CNC(=O)[C@H]1C[C@@H](Nc2ncc(Cl)c(-c3cccc(-c4ccc(F)cc4)n3)n2)C1 [Compound 115, cis-3-((5-chloro-4-(6-(4-fluorophenyl)pyridin-2-yl)pyrimidin-2-yl)amino)-N-methylcyclobutane-1-carboxamide] | < 500 |
| CC(=O)N[C@H]1CC[C@H](Nc2ncc(Cl)c(-c3cnn(C4CC4)c3)n2)CC1 [Compound 116, trans-N-((1r,4r)-4-((5-chloro-4-(1-cyclopropyl-1H-pyrazol-4-yl)pyrimidin-2-yl)amino)cyclohexyl)acetamide] | < 500 |
| CNC(=O)[C@H]1CC[C@H](Nc2ncc(Cl)c(-c3cnn(C4CC4)c3)n2)CC1 [Compound 117, trans-(1r,4r)-4-((5-chloro-4-(1-cyclopropyl-1H-pyrazol-4-yl)pyrimidin-2-yl)amino)-N-methylcyclohexane-1-carboxamide] | < 500 |
| CNC(=O)[C@H]1CC[C@H](Nc2ncc(Cl)c(-c3cnn(C4CCCCC4)c3)n2)CC1 [Compound 118, trans-(1r,4r)-4-((5-chloro-4-(1-cyclohexyl-1H-pyrazol-4-yl)pyrimidin-2-yl)amino)-N-methylcyclohexane-1-carboxamide] | < 500 |
| CNC(=O)[C@H]1C[C@H](Nc2ncc(Cl)c(-c3cnn(-c4ccc(=O)[nH]c4)c3)n2)C1 [Compound 119, trans-(1r,3r)-3-((5-chloro-4-(1-(6-oxo-1,6-dihydropyridin-3-yl)-1H-pyrazol-4-yl)pyrimidin-2-yl)amino)-N-methylcyclobutane-1-carboxamide] | < 500 |
| CC(=O)N1CCC(Nc2ncc(Cl)c(-c3cnn(-c4cc[nH]c(=O)c4)c3)n2)CC1 [Compound 120, 4-(4-(2-((1-acetylpiperidin-4-yl)amino)-5-chloropyrimidin-4-yl)-1H-pyrazol-1-yl)pyridin-2(1H)-one] | < 500 |
| CC(=O)N[C@H]1CC[C@H](Nc2ncc(Cl)c(-c3cnn(-c4ccc(F)cc4)c3)n2)CC1 [Compound 121, trans-N-((1r,4r)-4-((5-chloro-4-(1-(4-fluorophenyl)-1H-pyrazol-4-yl)pyrimidin-2-yl)amino)cyclohexyl)acetamide] | < 500 |
| CNC(=O)[C@H]1C[C@@H](Nc2ncc(Cl)c(-c3cnn(-c4ccc(F)cc4)c3)n2)C1 [Compound 122, cis-(1s,3s)-3-((5-chloro-4-(1-(4-fluorophenyl)-1H-pyrazol-4-yl)pyrimidin-2-yl)amino)-N-methylcyclobutane-1-carboxamide] | < 500 |
| CNC(=O)[C@H]1C[C@H](Nc2ncc(Cl)c(-c3cnn(-c4ccc(F)cc4)c3)n2)C1 [Compound 123, trans-(1r,3r)-3-((5-chloro-4-(1-(4-fluorophenyl)-1H-pyrazol-4-yl)pyrimidin-2-yl)amino)-N-methylcyclobutane-1-carboxamide] | 500 to 1000 |
| CC(=O)N[C@H]1CC[C@H](Nc2ncc(Cl)c(C3CCCN(C(=O)c4ccc(F)cc4)C3)n2)CC1 (stereo partly drawn) [Compound 124, trans-N-(4-((5-chloro-4-(1-(4-fluorobenzoyl)piperidin-3-yl)pyrimidin-2-yl)amino)cyclohexyl)acetamide] | < 500 |
| CC(=O)N1CCC(Nc2ncc(Cl)c(C3CCCN(C(=O)c4ccc(F)cc4)C3)n2)CC1 (stereo not shown) [Compound 125, 1-(4-((5-chloro-4-(1-(4-fluorobenzoyl)piperidin-3-yl)pyrimidin-2-yl)amino)piperidin-1-yl)ethan-1-one] | 1000 to 5000 |
| CC(=O)N[C@H]1CC[C@H](Nc2ncc(Cl)c(C3CCN(C(=O)c4ccc(F)cc4)C3)n2)CC1 (stereo partly drawn) [Compound 126, trans-N-(4-((5-chloro-4-(1-(4-fluorobenzoyl)pyrrolidin-3-yl)pyrimidin-2-yl)amino)cyclohexyl)acetamide] | 1000 to 5000 |
| CC(=O)N1CCC(Nc2ncc(Cl)c(C3CCN(C(=O)c4ccc(F)cc4)C3)n2)CC1 (stereo not shown) [Compound 127, 1-(4-((5-chloro-4-(1-(4-fluorobenzoyl)pyrrolidin-3-yl)pyrimidin-2-yl)amino)piperidin-1-yl)ethan-1-one] | 500 to 1000 |
